Results published in patent US10767179B2, “MicroRNA composition for the treatment of neuroblastoma” (THE BOARD OF REGENTS OF THE UNIVERSITY OF TEXAS SYSTEM, priority 2014, dated 2020).

Legend:
Type in all cases: cell-based
[1] = test system: PCNA and Ki67; assay: Western blots of cell proliferation markers in BE(2)-C cells; conditions: ATRA 5 days, dose-dependent
Experimental: (§1) Western Blots. Cell lysates were prepared using RIPA buffer. Protein concentration was determined using the Pierce BCA assay (Thermo Fisher Scientific). For electrophoresis, equal amounts of cell lysate were resolved by SDS-PAGE and transferred to Immun-Blot PVDF membranes (Bio-Rad Laboratories). Membranes were blocked and probed with primary antibodies to specific proteins. Bound antibodies were detected with secondary antibodies conjugated with horseradish peroxidase (HRP) visualized by enhanced chemiluminescent (ECL) substrate (Pierce).

[2] = test system: GAP43, NSE and β-TUBULIN III; assay: Western blots of differentiation markers in BE(2)-C cells; conditions: ATRA 5 days, dose-dependent
Experimental: as §1

[3] = test system: cleaved CASPASE 3 and PARP; assay: Western blots of apoptosis markers in BE(2)-C cells; conditions: ATRA 5 days, dose-dependent
Experimental: as §1

[4] = test system: BE(2)-C cells; assay: Cell Viability Assay (CellTiter-Glo)
Experimental: Cell Viability Assay. Cells were plated in 96-well format and treated as specified. After culturing for 120 h, cell viability was determined using the CellTiter-Glo Luminescent Cell Viability Assay (Promega).

[5] = test system: BE(2)-C cells; assay: High-content screen: detection and quantification of neurite outgrowth; conditions: ATRA vs carrier (DMSO), 5 days
[6] = test system: BE(2)-C cells; assay: as above; parameters: key: neurite length normalized to the mean of its plate; conditions: 25 nM miRNA mimic, 4 days transfection, normalized to plate mean
Experimental: FIG. 2A-2C. HCS screening of miRNA mimics identifies miRNAs that induce neurite outgrowth in BE(2)-C cells. (A-B) 2,500 cells were reverse-transfected with 25 nM miRNA mimics in 96-well plates. After 4 days transfection, relative neurite lengths were quantified as above. (A) The distribution of post-normalized neurite length measurements (grey histogram) for individual miRNA mimics from the screen and the fitted Gamma distribution curve (␣=3.27, ┘=0.444) (B) Correlation between two independent neurite length measurements for one library plate. Cells were transfected with 25 nM mimics in two independent 96-well plates. Normalized neurite lengths were measured as above. Correlation of neurite length between the two plates was analyzed using two-tailed Pearson Correlation with p<0.05 considered significant. (C) The distribution of the neurite lengths for untreated BE(2)-C cells. 2,500 Cells were plated into each well in 96 well plates. After 4 days of culture, neurite lengths were analyzed as above. Shown are the neurite length distribution histogram, the empirical density curve, and the fitted Gamma distribution curve (␣=30.23, ␣=0.033).
Detection and Quantification of Neurite Outgrowth. Cells were plated and treated in 96-well plates. For detecting neurite outgrowth, cells were placed into ZOOM IncuCyte Imaging System (Essen BioScience) and cell images were taken under 20× microscopic magnification. For detecting neurite outgrowth in a time-dependent manner, cell images were taken every 6 h. The neurite lengths associated with each treatment were calculated using the neurite definition defined for each specific cell line using the NeuroTrack system (Essen BioScience).
Analysis of HCS Data. The relative neurite length associated with cells in each well on the screen plates was determined as above. In order to allow for plate-to-plate comparison, neurite length associated with each well in each plate was first internally normalized to the mean of the corresponding plate, and multiple screen plates were then aggregated together to generate the neurite length distribution. The data were then further analyzed to determine the distribution of the unaffected cells as described below, and to identify differentiation-inducing miRNA mimics.
Statistical Analysis. For HCS, p-value for neurite length associated with each miRNA mimic was evaluated by assuming the distribution of neurite lengths follows Gamma distribution, and false Discovery Rate (FDR) was determined by Benjamini-Hochberg correction method for multiple tests (Benjamin, Journal of the Royal Statistical Society Series B (Methodological), 1995, 57(1):12). […] For all other conditions, the statistical significance for each treatment was determined using t-test by comparing the treatment group with control, with p<0.05 considered statistically significant.

CC1=C(/C=C/C(C)=C/C=C/C(C)=C/C(=O)O)C(C)(C)CCC1 [ATRA, all-trans retinoic acid]
Expression of cell proliferation markers (PCNA, Ki67) [1]: inhibits expression of cell proliferation markers
Expression of neuroblastoma differentiation markers (GAP43, NSE, β-TUBULIN III) [2]: stimulates expression of neuroblastoma differentiation markers
Expression of apoptosis markers (cleaved CASPASE 3, PARP) [3]: increases expression of apoptosis markers
Cell viability ([4]; 5 days, dose-dependent): decreases cell viability
Relative neurite length compared to control [5]: significantly increases the relative neurite length

CC1=C(/C=C/C(C)=C/C=C/C(C)=C\C(=O)O)C(C)(C)CCC1 [cis-RA, 13-cis retinoic acid]
Cell viability when reaching plateau ([4]; treated for 5 days): 42.6±3.7%

hsa-miR-34a-5p: miRNA mimic, mature sequence UGGCAGUGUCUUAGCUGGUUGU (SEQ ID NO: 7) (UGGCAGUGUCUUAGCUGGUUGU(2); as printed in the source, key not given here)
Neurite length (mean ± SD) [6]: 9.49 ± 3.18

hsa-miR-34b-Sp: miRNA mimic, mature sequence UAGGCAGUGUCAUUAGCUGAUUG (SEQ ID NO: 12) (listed as RNA, chemistry not given here)
Neurite length (mean ± SD) [6]: 8.41 ± 2.16

hsa-miR-103a-3p: miRNA mimic, mature sequence AGCAGCAUUGUACAGGGCUAUGA (SEQ ID NO: 8) (AGCAGCAUUGUACAGGGCUAUGA(3); as printed in the source, key not given here)
Neurite length (mean ± SD) [6]: 9.43 ± 2.67

hsa-miR-107: miRNA mimic, mature sequence AGCAGCAUUGUACAGGGCUAUCA (SEQ ID NO: 13) (AGCAGCAUUGUACAGGGCUAUCA(3); as printed in the source, key not given here)
Neurite length (mean ± SD) [6]: 7.60 ± 1.98

hsa-miR-135b-5p: miRNA mimic, mature sequence UAUGGCUUUUCAUUCCUAUGUGA (SEQ ID NO: 6) (listed as RNA, chemistry not given here)
Neurite length (mean ± SD) [6]: 14.02 ± 4.29

hsa-miR-137: miRNA mimic, mature sequence UUAUUGCUUAAGAAUACGCGUAG (SEQ ID NO: 16) (listed as RNA, chemistry not given here)
Neurite length (mean ± SD) [6]: 7.03 ± 1.36

hsa-miR-449a: miRNA mimic, mature sequence UGGCAGUGUAUUGUUAGCUGGU (SEQ ID NO: 10) (UGGCAGUGUAUUGUUAGCUGGU(2); as printed in the source, key not given here)
Neurite length (mean ± SD) [6]: 9.16 ± 2.47

hsa-miR-449b-5p: miRNA mimic, mature sequence AGGCAGUGUAUUGUUAGCUGGC (SEQ ID NO: 15) (AGGCAGUGUAUUGUUAGCUGGC(2); as printed in the source, key not given here)
Neurite length (mean ± SD) [6]: 7.40 ± 1.85

hsa-miR-450b-3p: miRNA mimic, mature sequence UUGGGAUCAUUUUGCAUCCAUA (SEQ ID NO: 9) (listed as RNA, chemistry not given here)
Neurite length (mean ± SD) [6]: 9.26 ± 2.64

hsa-miR-3714: miRNA mimic, mature sequence GAAGGCAGCAGUGCUCCCCUGU (SEQ ID NO: 14) (listed as RNA, chemistry not given here)
Neurite length (mean ± SD) [6]: 7.56 ± 1.91

hsa-miR-3937: miRNA mimic, mature sequence ACAGGCGGCUGUAGCAAUGGGGG (SEQ ID NO: 17) (listed as RNA, chemistry not given here)
Neurite length (mean ± SD) [6]: 6.93 ± 1.05
